How the values were obtained:
Estrogen receptor = molecular target: T1, Estrogen receptor (Homo sapiens, UniProt P03372)
T1 sequence (P03372 whole entry): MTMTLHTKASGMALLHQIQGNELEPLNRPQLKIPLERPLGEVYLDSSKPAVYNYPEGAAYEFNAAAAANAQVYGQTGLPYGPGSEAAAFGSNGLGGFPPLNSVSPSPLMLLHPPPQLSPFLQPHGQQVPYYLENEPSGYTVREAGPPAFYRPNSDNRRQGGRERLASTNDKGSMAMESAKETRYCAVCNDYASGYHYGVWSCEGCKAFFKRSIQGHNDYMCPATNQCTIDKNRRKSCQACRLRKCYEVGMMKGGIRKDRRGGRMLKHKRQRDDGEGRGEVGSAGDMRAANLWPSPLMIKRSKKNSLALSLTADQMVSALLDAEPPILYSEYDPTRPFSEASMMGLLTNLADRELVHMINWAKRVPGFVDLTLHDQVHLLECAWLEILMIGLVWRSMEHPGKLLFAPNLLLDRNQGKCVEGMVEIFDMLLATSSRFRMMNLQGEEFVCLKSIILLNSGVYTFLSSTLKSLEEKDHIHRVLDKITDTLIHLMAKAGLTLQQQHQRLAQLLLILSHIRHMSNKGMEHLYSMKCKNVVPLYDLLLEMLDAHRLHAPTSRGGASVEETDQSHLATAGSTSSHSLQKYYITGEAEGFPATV
Description: Binding affinity for human estrogen receptor alpha

Estrogen receptor beta = Estrogen receptor beta (Homo sapiens, UniProt Q92731)
Sequence of Estrogen receptor beta (Q92731 whole entry): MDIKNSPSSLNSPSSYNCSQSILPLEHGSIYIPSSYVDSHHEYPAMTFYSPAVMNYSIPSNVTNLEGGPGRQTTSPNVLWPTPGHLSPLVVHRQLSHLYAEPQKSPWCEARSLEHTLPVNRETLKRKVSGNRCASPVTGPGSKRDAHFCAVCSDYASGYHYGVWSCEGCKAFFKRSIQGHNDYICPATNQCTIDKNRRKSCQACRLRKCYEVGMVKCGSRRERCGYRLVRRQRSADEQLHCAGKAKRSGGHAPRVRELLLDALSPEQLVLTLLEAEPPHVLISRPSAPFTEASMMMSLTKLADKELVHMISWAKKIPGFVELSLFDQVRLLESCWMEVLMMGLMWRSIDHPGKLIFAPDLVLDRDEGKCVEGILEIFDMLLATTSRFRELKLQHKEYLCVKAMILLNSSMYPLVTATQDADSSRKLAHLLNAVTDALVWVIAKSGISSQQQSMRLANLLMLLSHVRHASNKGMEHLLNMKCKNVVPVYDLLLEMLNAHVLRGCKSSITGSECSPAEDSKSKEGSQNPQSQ
Description: Binding affinity for human estrogen receptor beta

MCF7 = assay: Inhibition of MCF-7 cancer cell proliferation; format: functional, cell-based; settings: Homo sapiens

Structure (SMILES)	IC50 (Estrogen receptor) [nM]	IC50 (Estrogen receptor beta) [nM]	IC50 (MCF7) [nM]
CN1CCN(c2ccc([C@@H]3Oc4ccc(O)cc4S[C@@H]3c3ccc(O)cc3)cc2)CC1	1	59	3.4
Oc1ccc([C@H]2Sc3cc(O)ccc3O[C@H]2c2ccc(CN3CCCCC3)cc2)cc1	155	4370	–
Oc1ccc([C@H]2Sc3cc(O)ccc3O[C@H]2CCCN2CCCCC2)cc1	0.7	27	1.2
CN1CCCN(c2ccc([C@@H]3Oc4ccc(O)cc4S[C@@H]3c3ccc(O)cc3)cc2)CC1	3.6	365	29
Oc1ccc([C@H]2Sc3cc(O)ccc3O[C@H]2c2ccc(N3CCNCC3)cc2)cc1	4.4	186	2.8
CCN1CCN(c2ccc([C@@H]3Oc4ccc(O)cc4S[C@@H]3c3ccc(O)cc3)cc2)CC1	1	27	1.4
Oc1ccc([C@H]2Sc3cc(O)ccc3O[C@H]2c2ccc(C3CCNCC3)cc2)cc1	1.7	115	1.9
Oc1ccc([C@H]2Sc3cc(O)ccc3O[C@H]2c2ccc(COCCN3CCCCC3)cc2)cc1	2.3	259	14.6
Oc1ccc([C@H]2Sc3cc(O)ccc3O[C@H]2c2ccc(CCCN3CCCCC3)cc2)cc1	1.4	186	6.7
Oc1ccc([C@H]2Sc3cc(O)ccc3O[C@H]2c2ccc(N3CCCNCC3)cc2)cc1	3.6	161	28
Oc1ccc([C@H]2Sc3cc(O)ccc3O[C@H]2c2ccc(C3=CCNCC3)cc2)cc1	1.4	31	0.9
